Here are results for one compound from PMC10877733, “Discovery and Characterization of VU0542270, the First Selective Inhibitor of Vascular Kir6.1/SUR2B KATP Channels” (Molecular Pharmacology, 2024).

Data set [1] has as its system nine other members of the Kir channel family. Kind of data set: Thallium assays, panel of nine other members of the Kir channel family. The class given is cell-based. The following applies: read-out: IC50 against panel of nine other Kir channel family members. On the procedure: (§1) Quantitative thallium flux assays of Kir6.1/SUR2B activity were performed essentially as described previously for Kir6.2/SUR1 ([Raphemot et al., 2014]; [Kharade et al., 2019]). Stable T-Rex-HEK293-Kir6.1/SUR2B cells or transiently transfected HEK293T cells were plated in polyamine-coated, clear-bottomed, black-walled 384-well plates and were cultured (37°C/5% CO2) overnight in Dulbecco’s modified Eagle’s medium (Gibco, Carlsbad, CA, 11995-065) containing 10% FBS (2 mM Penicillin-Streptomycin). The following day, cells were washed with assay buffer (i.e., Hanks’ balanced salt solution/20 mM HEPES) and loaded for 1 hour with thallium sensor dye Brilliant Thallium (Ion Bioscience, San Marcos, TX) at room temperature. Dye-loaded cells were washed with assay buffer and transferred to a Panoptic Kinetic Imaging Plate Reader (Wavefront Bioscience, Franklin, TN). Control and test compound treatments were for 4 minutes prior to adding 0.5 mM chloride-free thallium stimulus buffer (Ion Bioscience) to initiate thallium flux. […] Selectivity assays against other Kir channels were performed essentially as described previously ([Kharade et al., 2018]; [McClenahan et al., 2022]).

The nature of data set [2]: Brain homogenate binding by equilibrium dialysis, mouse. The class given is in vitro ADME. The following applies: read-out: Fu, brain (mouse). On the procedure: Determination of VU0542270 fu in […] from mouse and rat was conducted using the same methodology and procedure as described for plasma protein binding assay with the following modifications: 1) a final compound concentration of 1 μM was used, and 2) naïve rat brains were homogenized in DPBS (1:3 composition of brain:DPBS, w/w) using a Mini-Bead Beater machine to obtain brain homogenate.
The diluted fraction unbound (fu2) in brain was calculated as (analyte to IS MS peak area ratio from Trans-buffer side)/(analyte to IS MS peak area ratio from Cis-brain homogenate side). Undiluted fraction unbound for the brain was calculated using the following equation: [drawing 1]
Mean values for each species were calculated from three replicates.
Background: In equilibrium dialysis free small molecules cross a membrane that holds back macromolecules.

A short description of data set [3]: Intrinsic clearance in liver microsomes, rat. It is filed as in vitro ADME. On the procedure:
(§2) The in vitro intrinsic clearance (CLint) of VU0542270 was investigated in commercially obtained hepatic microsomes from rat, mouse, and human donors using the substrate depletion (i.e., loss-of-parent versus time, or t1/2 method) approach with analyte detection via LC-MS/MS. For each species, mean per cent parent remaining values at each time point were calculated from replicates raw data (analyte:IS peak area ratios) and used to determine in vitro t1/2 and CLint.
(§3) Experiments were carried out using a robot-assisted liquid handling system (TECAN model Evo 200). VU0542270 was incubated (1 µM final concentration) in buffer (100 mM potassium phosphate, pH 7.4, with 3 mM MgCl2) containing hepatic microsomes (0.5 mg/mL final concentration) from multiple species, discretely, at 37°C under constant orbital shaking. After 5 minutes (preincubation), reactions were initiated by the addition of NADPH (1 mM final concentration). At selected time intervals (0, 3, 7, 15, 25, and 45 minutes) post addition of NADPH, aliquots (50 µL) were taken and placed into a 96-shallow-well plate containing ice-cold acetonitrile (150 µL) with carbamazepine (IS, 50 nM). The plates were then centrifuged (3000 rcf at 4°C) for 10 minutes. […]
(§4) Predicted hepatic clearance (CLhep) was calculated using the following equation: [drawing 4] […]

The target in data set [4] is T1, Kir2.1 (Homo sapiens, UniProt P63252).
T1 construct: expressed in transfected cells
T1 sequence (P63252 1-427): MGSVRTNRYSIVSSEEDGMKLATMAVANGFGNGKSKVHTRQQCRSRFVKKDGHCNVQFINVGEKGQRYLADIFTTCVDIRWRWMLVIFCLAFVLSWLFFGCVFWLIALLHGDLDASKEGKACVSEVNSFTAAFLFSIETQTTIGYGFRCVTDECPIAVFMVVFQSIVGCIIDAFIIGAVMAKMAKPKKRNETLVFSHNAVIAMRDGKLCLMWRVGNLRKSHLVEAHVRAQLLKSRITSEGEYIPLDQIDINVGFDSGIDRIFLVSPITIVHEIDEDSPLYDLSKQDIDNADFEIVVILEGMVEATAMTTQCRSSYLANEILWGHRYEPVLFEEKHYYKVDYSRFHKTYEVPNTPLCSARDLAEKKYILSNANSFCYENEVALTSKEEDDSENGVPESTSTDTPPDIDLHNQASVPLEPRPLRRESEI
Kind of data set: Thallium flux selectivity assay Kir2.1. It is filed as cell-based. Here is the method: as §1

Data set [5] in a line: Intrinsic clearance in liver microsomes, mouse. It is filed as in vitro ADME. Here is the method: as §2, §3, §4
In general terms: Microsomes from liver hold many membrane-bound enzymes, among them those of drug oxidation.

Where [6] appears, read: corrected to plasma unbound fraction.

Bounds are passed on as bounds.

For orientation: IC50 means the midpoint of a concentration-inhibition curve. Regarding `Cc1nc(-c2cccs2)sc1CNC(=O)Nc1cccs1` [VU0542270], the IC50 in data set [1] and in data set [4] was greater than 30 µM each time. The fraction unbound at 6 h, 1 µM in data set [2] came to 0.02. Moreover, in data set [3] (setting [6]), the “Predicted CLhep,u (rat)” value is on record as 6.0 mL/min per kg. For the same compound, in data set [3] (from microsomal CLint), the “Predicted CLhep (rat)” value is listed as 63 mL/min per kg. For the same compound, the “Predicted CLhep,u (mouse)” value in data set [5] (setting [6]) is on record as 27 mL/min per kg. Moreover, the “Predicted CLhep (mouse)” value in data set [5] (from microsomal CLint) is recorded as 88 mL/min per kg.
